# Assay results published in ChEMBL document CHEMBL4177582, “Modifications of flexible nonyl chain and nucleobase head group of (+)-erythro-9-(2's-hydroxy-3's-nonyl)adenine [(+)-EHNA] as adenosine deaminase inhibitors” (Bioorg Med Chem, 2017).
# Tested on: not listed separately
# Test: Half life in mouse liver microsomes pre-incubated at 37 degC for 5 mins before NADPH addition and measured after 30 mins by LC/MS/MS method
# Assay type: ADME, microsome
# Conditions: not given
row,SMILES,half-life [min]
1,C[C@H](O)[C@@H](CCc1cccc(-c2ccccn2)c1)n1cnc2c(N)ncnc21,> 30
2,C[C@H](O)[C@@H](CCC1CCCCC1)n1cnc2c(N)ncnc21,> 30
3,CCCCSC[C@H]([C@H](C)O)n1cnc2c(N)ncnc21,> 30
4,C[C@H](O)[C@@H](CCc1cccc(-c2cnccn2)c1)n1cnc2c(N)ncnc21,> 30
5,C[C@H](O)[C@@H](CCc1cccc(-c2nccs2)c1)n1cnc2c(N)ncnc21,> 30
6,CCc1ccc(CC[C@H]([C@H](C)O)n2cnc3c(N)ncnc32)s1,> 30
7,COC(=O)c1cccc(CC[C@H]([C@H](C)O)n2cnc3c(N)ncnc32)c1,> 30

# Tested on: not listed separately
# Test: Drug metabolism in mouse liver microsomes assessed as drug recovery pre-incubated at 37 degC for 5 mins before NADPH addition and measured after 30 mins by LC/MS/MS method
# Assay type: ADME, microsome
# Conditions: read-out: Drug recovery
row,SMILES,remaining at 0.5 h [%]
1,C[C@H](O)[C@@H](CCc1cccc(-c2ccccn2)c1)n1cnc2c(N)ncnc21,58
2,C[C@H](O)[C@@H](CCC1CCCCC1)n1cnc2c(N)ncnc21,77
3,CCCCSC[C@H]([C@H](C)O)n1cnc2c(N)ncnc21,100
4,C[C@H](O)[C@@H](CCc1cccc(-c2cnccn2)c1)n1cnc2c(N)ncnc21,57
5,C[C@H](O)[C@@H](CCc1cccc(-c2nccs2)c1)n1cnc2c(N)ncnc21,65
6,CCc1ccc(CC[C@H]([C@H](C)O)n2cnc3c(N)ncnc32)s1,64
7,COC(=O)c1cccc(CC[C@H]([C@H](C)O)n2cnc3c(N)ncnc32)c1,88

# Tested on: not listed separately
# Test: Half life in rat liver microsomes pre-incubated at 37 degC for 5 mins before NADPH addition and measured after 30 mins by LC/MS/MS method
# Assay type: ADME, microsome
# Conditions: not given
row,SMILES,half-life [min]
1,C[C@H](O)[C@@H](CCc1cccc(-c2ccccn2)c1)n1cnc2c(N)ncnc21,> 30
2,C[C@H](O)[C@@H](CCC1CCCCC1)n1cnc2c(N)ncnc21,13
3,CCCCSC[C@H]([C@H](C)O)n1cnc2c(N)ncnc21,> 30
4,C[C@H](O)[C@@H](CCc1cccc(-c2cnccn2)c1)n1cnc2c(N)ncnc21,> 30
5,C[C@H](O)[C@@H](CCc1cccc(-c2nccs2)c1)n1cnc2c(N)ncnc21,> 30
6,CCc1ccc(CC[C@H]([C@H](C)O)n2cnc3c(N)ncnc32)s1,> 30
7,COC(=O)c1cccc(CC[C@H]([C@H](C)O)n2cnc3c(N)ncnc32)c1,> 30

# Tested on: not listed separately
# Test: Drug metabolism in rat liver microsomes assessed as drug recovery pre-incubated at 37 degC for 5 mins before NADPH addition and measured after 30 mins by LC/MS/MS method
# Assay type: ADME, microsome
# Conditions: read-out: Drug recovery
row,SMILES,remaining at 0.5 h [%]
1,C[C@H](O)[C@@H](CCc1cccc(-c2ccccn2)c1)n1cnc2c(N)ncnc21,64
2,C[C@H](O)[C@@H](CCC1CCCCC1)n1cnc2c(N)ncnc21,19
3,CCCCSC[C@H]([C@H](C)O)n1cnc2c(N)ncnc21,86
4,C[C@H](O)[C@@H](CCc1cccc(-c2cnccn2)c1)n1cnc2c(N)ncnc21,90
5,C[C@H](O)[C@@H](CCc1cccc(-c2nccs2)c1)n1cnc2c(N)ncnc21,76
6,CCc1ccc(CC[C@H]([C@H](C)O)n2cnc3c(N)ncnc32)s1,58
7,COC(=O)c1cccc(CC[C@H]([C@H](C)O)n2cnc3c(N)ncnc32)c1,96

# Biological target: T1, Adenosine deaminase (Bos taurus, UniProt P56658)
# T1 sequence (P56658 whole entry): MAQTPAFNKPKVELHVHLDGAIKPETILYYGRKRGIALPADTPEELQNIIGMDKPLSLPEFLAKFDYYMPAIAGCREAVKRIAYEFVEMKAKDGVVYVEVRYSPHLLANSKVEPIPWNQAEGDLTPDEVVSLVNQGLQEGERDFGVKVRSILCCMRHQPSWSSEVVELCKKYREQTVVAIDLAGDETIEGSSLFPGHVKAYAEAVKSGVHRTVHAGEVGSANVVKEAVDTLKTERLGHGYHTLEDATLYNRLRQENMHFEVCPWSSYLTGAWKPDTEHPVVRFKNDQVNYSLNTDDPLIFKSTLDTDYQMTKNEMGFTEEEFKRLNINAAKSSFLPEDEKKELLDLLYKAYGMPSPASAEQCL
# Test: Inhibition of bovine adenosine deaminase pre-incubated for 5 mins before adenosine addition
# Conditions: read-out: Ki
row,SMILES,Ki [nM]
1,C[C@H](O)[C@@H](CCc1cccc(-c2ccccn2)c1)n1cnc2c(N)ncnc21,2.3
2,C[C@H](O)[C@@H](CCC1CCCCC1)n1cnc2c(N)ncnc21,1.9
3,CCCCSC[C@H]([C@H](C)O)n1cnc2c(N)ncnc21,54
4,C[C@H](O)[C@@H](CCc1cccc(-c2cnccn2)c1)n1cnc2c(N)ncnc21,1.9
5,C[C@H](O)[C@@H](CCc1cccc(-c2nccs2)c1)n1cnc2c(N)ncnc21,2.6
6,CCc1ccc(CC[C@H]([C@H](C)O)n2cnc3c(N)ncnc32)s1,2.1
7,COC(=O)c1cccc(CC[C@H]([C@H](C)O)n2cnc3c(N)ncnc32)c1,2.2

# Tested on: not listed separately
# Test: Drug metabolism in rat liver microsomes assessed as metabolic turnover rate per 0.125 mg/ml protein pre-incubated at 37 degC for 5 mins before NADPH addition and measured after 30 mins by LC/MS/MS method
# Assay type: ADME, microsome
# Conditions: 0.5 h
row,SMILES,Drug metabolism [nmol/min/mg]
1,C[C@H](O)[C@@H](CCc1cccc(-c2ccccn2)c1)n1cnc2c(N)ncnc21,0.12
2,C[C@H](O)[C@@H](CCC1CCCCC1)n1cnc2c(N)ncnc21,0.44
3,CCCCSC[C@H]([C@H](C)O)n1cnc2c(N)ncnc21,0.04
4,C[C@H](O)[C@@H](CCc1cccc(-c2cnccn2)c1)n1cnc2c(N)ncnc21,< 0.04
5,C[C@H](O)[C@@H](CCc1cccc(-c2nccs2)c1)n1cnc2c(N)ncnc21,0.09
6,CCc1ccc(CC[C@H]([C@H](C)O)n2cnc3c(N)ncnc32)s1,0.15
7,COC(=O)c1cccc(CC[C@H]([C@H](C)O)n2cnc3c(N)ncnc32)c1,< 0.04

# Tested on: not listed separately
# Test: Drug metabolism in human liver microsomes assessed as metabolic turnover rate per 0.125 mg/ml protein pre-incubated at 37 degC for 5 mins before NADPH addition and measured after 30 mins by LC/MS/MS method
# Assay type: ADME, microsome
# Conditions: 0.5 h
row,SMILES,Drug metabolism [nmol/min/mg]
1,C[C@H](O)[C@@H](CCc1cccc(-c2ccccn2)c1)n1cnc2c(N)ncnc21,0.06
2,C[C@H](O)[C@@H](CCC1CCCCC1)n1cnc2c(N)ncnc21,0.11
3,CCCCSC[C@H]([C@H](C)O)n1cnc2c(N)ncnc21,< 0.04
4,C[C@H](O)[C@@H](CCc1cccc(-c2cnccn2)c1)n1cnc2c(N)ncnc21,0.09
5,C[C@H](O)[C@@H](CCc1cccc(-c2nccs2)c1)n1cnc2c(N)ncnc21,0.05
6,CCc1ccc(CC[C@H]([C@H](C)O)n2cnc3c(N)ncnc32)s1,0.07
7,COC(=O)c1cccc(CC[C@H]([C@H](C)O)n2cnc3c(N)ncnc32)c1,0.1

# Tested on: not listed separately
# Test: Half life in human liver microsomes pre-incubated at 37 degC for 5 mins before NADPH addition and measured after 30 mins by LC/MS/MS method
# Assay type: ADME, microsome
# Conditions: not given
row,SMILES,half-life [min]
1,C[C@H](O)[C@@H](CCc1cccc(-c2ccccn2)c1)n1cnc2c(N)ncnc21,> 30
2,C[C@H](O)[C@@H](CCC1CCCCC1)n1cnc2c(N)ncnc21,> 30
3,CCCCSC[C@H]([C@H](C)O)n1cnc2c(N)ncnc21,> 30
4,C[C@H](O)[C@@H](CCc1cccc(-c2cnccn2)c1)n1cnc2c(N)ncnc21,> 30
5,C[C@H](O)[C@@H](CCc1cccc(-c2nccs2)c1)n1cnc2c(N)ncnc21,> 30
6,CCc1ccc(CC[C@H]([C@H](C)O)n2cnc3c(N)ncnc32)s1,> 30
7,COC(=O)c1cccc(CC[C@H]([C@H](C)O)n2cnc3c(N)ncnc32)c1,> 30

# Tested on: not listed separately
# Test: Drug metabolism in human liver microsomes assessed as drug recovery pre-incubated at 37 degC for 5 mins before NADPH addition and measured after 30 mins by LC/MS/MS method
# Assay type: ADME, microsome
# Conditions: read-out: Drug recovery
row,SMILES,remaining at 0.5 h [%]
1,C[C@H](O)[C@@H](CCc1cccc(-c2ccccn2)c1)n1cnc2c(N)ncnc21,82
2,C[C@H](O)[C@@H](CCC1CCCCC1)n1cnc2c(N)ncnc21,65
3,CCCCSC[C@H]([C@H](C)O)n1cnc2c(N)ncnc21,94
4,C[C@H](O)[C@@H](CCc1cccc(-c2cnccn2)c1)n1cnc2c(N)ncnc21,71
5,C[C@H](O)[C@@H](CCc1cccc(-c2nccs2)c1)n1cnc2c(N)ncnc21,84
6,CCc1ccc(CC[C@H]([C@H](C)O)n2cnc3c(N)ncnc32)s1,76
7,COC(=O)c1cccc(CC[C@H]([C@H](C)O)n2cnc3c(N)ncnc32)c1,68

# Tested on: not listed separately
# Test: Drug metabolism in mouse liver microsomes assessed as metabolic turnover rate per 0.125 mg/ml protein pre-incubated at 37 degC for 5 mins before NADPH addition and measured after 30 mins by LC/MS/MS method
# Assay type: ADME, microsome
# Conditions: 0.5 h
row,SMILES,Drug metabolism [nmol/min/mg]
1,C[C@H](O)[C@@H](CCc1cccc(-c2ccccn2)c1)n1cnc2c(N)ncnc21,0.15
2,C[C@H](O)[C@@H](CCC1CCCCC1)n1cnc2c(N)ncnc21,0.07
3,CCCCSC[C@H]([C@H](C)O)n1cnc2c(N)ncnc21,< 0.04
4,C[C@H](O)[C@@H](CCc1cccc(-c2cnccn2)c1)n1cnc2c(N)ncnc21,0.16
5,C[C@H](O)[C@@H](CCc1cccc(-c2nccs2)c1)n1cnc2c(N)ncnc21,0.1
6,CCc1ccc(CC[C@H]([C@H](C)O)n2cnc3c(N)ncnc32)s1,0.11
7,COC(=O)c1cccc(CC[C@H]([C@H](C)O)n2cnc3c(N)ncnc32)c1,0.04

# Tested on: not listed separately
# Test: Drug metabolism in human liver microsomes assessed as drug recovery pre-incubated at 37 degC for 5 mins measured after 30 mins in absence of NADPH by LC/MS/MS method
# Assay type: ADME, microsome
# Conditions: read-out: Drug recovery
row,SMILES,remaining at 0.5 h [%]
1,C[C@H](O)[C@@H](CCc1cccc(-c2ccccn2)c1)n1cnc2c(N)ncnc21,91
2,C[C@H](O)[C@@H](CCC1CCCCC1)n1cnc2c(N)ncnc21,83
3,CCCCSC[C@H]([C@H](C)O)n1cnc2c(N)ncnc21,85
4,C[C@H](O)[C@@H](CCc1cccc(-c2cnccn2)c1)n1cnc2c(N)ncnc21,94
5,C[C@H](O)[C@@H](CCc1cccc(-c2nccs2)c1)n1cnc2c(N)ncnc21,100
6,CCc1ccc(CC[C@H]([C@H](C)O)n2cnc3c(N)ncnc32)s1,95
7,COC(=O)c1cccc(CC[C@H]([C@H](C)O)n2cnc3c(N)ncnc32)c1,65

# Tested on: not listed separately
# Test: Drug metabolism in mouse liver microsomes assessed as drug recovery pre-incubated at 37 degC for 5 mins measured after 30 mins in absence of NADPH by LC/MS/MS method
# Assay type: ADME, microsome
# Conditions: read-out: Drug recovery
row,SMILES,remaining at 0.5 h [%]
1,C[C@H](O)[C@@H](CCc1cccc(-c2ccccn2)c1)n1cnc2c(N)ncnc21,100
2,C[C@H](O)[C@@H](CCC1CCCCC1)n1cnc2c(N)ncnc21,92
3,CCCCSC[C@H]([C@H](C)O)n1cnc2c(N)ncnc21,94
4,C[C@H](O)[C@@H](CCc1cccc(-c2cnccn2)c1)n1cnc2c(N)ncnc21,94
5,C[C@H](O)[C@@H](CCc1cccc(-c2nccs2)c1)n1cnc2c(N)ncnc21,92
6,CCc1ccc(CC[C@H]([C@H](C)O)n2cnc3c(N)ncnc32)s1,90
7,COC(=O)c1cccc(CC[C@H]([C@H](C)O)n2cnc3c(N)ncnc32)c1,100

# Tested on: not listed separately
# Test: Drug metabolism in rat liver microsomes assessed as drug recovery pre-incubated at 37 degC for 5 mins measured after 30 mins in absence of NADPH by LC/MS/MS method
# Assay type: ADME, microsome
# Conditions: read-out: Drug recovery
row,SMILES,remaining at 0.5 h [%]
1,C[C@H](O)[C@@H](CCc1cccc(-c2ccccn2)c1)n1cnc2c(N)ncnc21,100
2,C[C@H](O)[C@@H](CCC1CCCCC1)n1cnc2c(N)ncnc21,94
3,CCCCSC[C@H]([C@H](C)O)n1cnc2c(N)ncnc21,97
4,C[C@H](O)[C@@H](CCc1cccc(-c2cnccn2)c1)n1cnc2c(N)ncnc21,85
5,C[C@H](O)[C@@H](CCc1cccc(-c2nccs2)c1)n1cnc2c(N)ncnc21,91
6,CCc1ccc(CC[C@H]([C@H](C)O)n2cnc3c(N)ncnc32)s1,95
7,COC(=O)c1cccc(CC[C@H]([C@H](C)O)n2cnc3c(N)ncnc32)c1,99
